# Data published in patent US20250295662A1, “USE OF CDK4/6 INHIBITOR IN TREATMENT OF DEDIFFERENTIATED LIPOSARCOMA” (priority 2022, published 2025).
# Legend:
# [1] = system: dedifferentiated liposarcoma; assay: Clinical trial in dedifferentiated liposarcoma: safety (NCI-CTC AE 5.0); format: in vivo, human; settings: patients, 28-day cycle
# From the text: (§1) In this study, a randomized, double-blind, placebo-controlled parallel trial design or a single arm trial design was employed. For the parallel control trial, after all patients signed the informed consent, subjects eligible for enrollment by screening were randomized (1:1) into two groups, i.e., a test group given the capsule of the compound of formula I and a control group given the placebo of the capsule of the compound of formula I, with 4 weeks (28 days) being 1 cycle; for the single arm trial, the administration regimen was the same as that for the test group of the parallel control trial. The efficacy and safety of the capsule of the compound of formula I in the treatment of dedifferentiated liposarcoma was evaluated by the clinical trials of the present disclosure.
# (§2) Hemoglobin (HGB) ≥90.0 g/L; • b. Absolute neutrophil count (ANC) ≥1.5×10^9/L; • c. Platelet count (PLT) ≥90×10^9/L; • 2) Biochemical examination criteria: • a. Total bilirubin (TBIL) ≤1.5×upper limit of normal ULN; for patients with Gilbert syndrome, ≤3×ULN; • b. Alanine aminotransferase (ALT) and aspartate aminotransferase (AST) ≤3×ULN. If liver metastasis is accompanied, ALT and AST ≤5×ULN; • c.
# (§3) Capsules of the compound of formula (I): strength: 50 mg or 60 mg, provided by Chia Tai Tianqing Pharmaceutical Group Co., Ltd.
# (§4) Capsules of the compound of formula (I): 180 mg/each administration (based on the compound of formula (I)), oral administration at fasting, once daily, and 28 consecutive days of administration as one treatment cycle. Placebo of the capsule of the compound of formula (I): 0 mg/each administration (based on the compound of formula (I)), oral administration at fasting, once daily, and 28 consecutive days of administration as one treatment cycle.
# Safety evaluation criteria: the severity of adverse events was determined using the NCI-CTC AE 5.0 criteria. Adverse event record forms including time of occurrence, severity, relevance to the studied treatment, duration, measures taken, and the final state of the subject should be faithfully filled out during the trial.
# [2] = system: dedifferentiated liposarcoma; assay: Clinical trial in dedifferentiated liposarcoma: efficacy (RECIST 1.1); format: in vivo, human; settings: 180 mg oral once daily
# From the text: as §1, §2, §3, §4
# Efficacy evaluation criteria: disease state was determined using the RECIST 1.1 criteria.
# [3] = capsules 180 mg oral once daily
smiles,measurement,setting,value
CC(C)c1c2cc(-c3nc(Nc4ccc(N5CCNCC5)cn4)ncc3F)ccc2nn1C [compound of formula (I)],"Gastrointestinal reactions (diarrhea, vomiting, and the like), grade","[1]; capsules 180 mg oral at fasting once daily, mainly this grade, controlled after symptomatic treatment",1-2 grade
same,total incidence rate of TEAEs of grade 3 or above,[1]; [3],9%
same,total safety,[1]; [3],good
same,"PFS, OS, ORR, DCR and DOR of the patients that could be evaluated",[2]; 28-day cycle,all good
same,12-week PFS rate,[2]; 15 subjects who had achieved the evaluation of C3 (12 weeks) efficacy,60%
same,patients who achieved 12-week PFS,[2]; of the 15 subjects evaluated at C3 (12 weeks),9 patients
